How the values were obtained:
rice = experiment: Test B flooded paddy test; assay type: in vivo, Oryza sativa; conditions: 500 g ai/ha, Flood; scale of 0 to 100 where 0 is no effect and 100 is complete control
How it was run: (§1)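 Scoring: visual, compared with untreated controls, 0 = no effect through 100 = complete control, taken 13 to 15 days after treatment in the greenhouse. Compounds had been added to paddy water over soil flooded 3 cm deep at the plants' 2-leaf stage.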

barnyardgrass [1] = experiment: Test A pre-/postemergence herbicide test; assay type: in vivo, Echinochloa crus-galli
How it was run: (§2)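 Scoring was visual, relative to untreated controls, on a 0–100 scale after about 10 greenhouse days. Preemergence treatment used a directed soil spray over seeded loam/sand; postemergence treatment targeted one- to two-leaf plants of 2–10 cm.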

blackgrass = experiment: Test A postemergence herbicide test; assay type: in vivo, Alopecurus myosuroides; conditions: for Plant response rating, Blackgrass: 125 g ai/ha, 0 to 100 scale, 0 is no effect, 100 is complete control; for Blackgrass plant response rating (0 to 100 scale, 0 is no effect, 100 is complete control): 500 g ai/ha
How it was run: (§3)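 Ratings compare treated with untreated plants roughly 10 days after a postemergence application made at the one- to two-leaf stage. Scoring uses 0–100, where 0 means no effect and 100 complete control.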

ragweed = experiment: Test A pre-/postemergence herbicide test; assay type: in vivo, Ambrosia elatior; conditions: for Plant response rating, Ragweed: 0 to 100 scale
How it was run: as §2

galium = experiment: Test A postemergence herbicide test; assay type: in vivo, Galium aparine; conditions: for Plant response rating, Galium: 125 g ai/ha, 0 to 100 scale, 0 is no effect, 100 is complete control; for Galium plant response rating (0 to 100 scale, 0 is no effect, 100 is complete control): 500 g ai/ha
How it was run: as §3

sedge, umbrella = experiment: Test B flooded paddy test; assay type: in vivo, Cyperus difformis; conditions: 500 g ai/ha, Flood; scale of 0 to 100 where 0 is no effect and 100 is complete control
How it was run: as §1

ducksalad = experiment: Test B flooded paddy test; assay type: in vivo, Heteranthera limosa; conditions: 500 g ai/ha, Flood; scale of 0 to 100 where 0 is no effect and 100 is complete control
How it was run: as §1

giant foxtail = experiment: Test A pre-/postemergence herbicide test; assay type: in vivo, Setaria faberii; conditions: for Plant response rating, Foxtail, Giant: 0 to 100 scale
How it was run: as §2

kochia = experiment: Test A pre-/postemergence herbicide test; assay type: in vivo, Kochia scoparia; conditions: for Plant response rating, Kochia: 0 to 100 scale
How it was run: as §2

wheat = experiment: Test A pre-/postemergence herbicide test; assay type: in vivo, Triticum aestivum; conditions: Postemergence; for Plant response rating, Wheat: 125 g ai/ha, 0 to 100 scale, 0 is no effect, 100 is complete control; for Wheat plant response rating (0 to 100 scale, 0 is no effect, 100 is complete control): 500 g ai/ha
How it was run: as §2

ryegrass, Italian = experiment: Test A pre-/postemergence herbicide test; assay type: in vivo, Lolium multiflorum; conditions: for Plant response rating, Ryegrass, Italian: 0 to 100 scale
How it was run: as §2

barnyardgrass [2] = experiment: Test B flooded paddy test; assay type: in vivo, Echinochloa crus-galli; conditions: 500 g ai/ha, Flood; scale of 0 to 100 where 0 is no effect and 100 is complete control
How it was run: as §1

corn = experiment: Test A pre-/postemergence herbicide test; assay type: in vivo, Zea mays; conditions: Postemergence; for Plant response rating, Corn: 125 g ai/ha, 0 to 100 scale, 0 is no effect, 100 is complete control; for Corn plant response rating (0 to 100 scale, 0 is no effect, 100 is complete control): 500 g ai/ha
How it was run: as §2

pigweed = experiment: Test A pre-/postemergence herbicide test; assay type: in vivo, Amaranthus retroflexus; conditions: for Plant response rating, Pigweed: 0 to 100 scale
How it was run: as §2

[3] = 125 g ai/ha, visual rating, 0 to 100 scale, 0 no effect, 100 complete control, approximately 10 days, preemergence
[4] = Postemergence, 125 g ai/ha, 0 to 100 scale, 0 is no effect, 100 is complete control
[5] = preemergence, 500 g ai/ha, 0 to 100 scale (0 no effect, 100 complete control)
[6] = 125 g ai/ha, visual rating, 0 no effect, 100 complete control, approximately 10 days, preemergence
[7] = Postemergence, 125 g ai/ha, 0 is no effect, 100 is complete control
[8] = preemergence, 500 g ai/ha, 0 is no effect and 100 is complete control

| Compound | Plant response rating, Rice (rice) | Plant response rating, Barnyardgrass (barnyardgrass [1]; [3]) | Plant response rating, Barnyardgrass (barnyardgrass [1]; [4]) | Barnyardgrass plant response rating (0 to 100 scale, 0 is no effect, 100 is complete control) (barnyardgrass [1]; Postemergence, 500 g ai/ha) | Plant response rating, Barnyardgrass (barnyardgrass [1]; [5]) | Plant response rating, Blackgrass (blackgrass) | Blackgrass plant response rating (0 to 100 scale, 0 is no effect, 100 is complete control) (blackgrass) | Plant response rating, Ragweed (ragweed; [6]) | Plant response rating, Ragweed (ragweed; [7]) | Ragweed plant response rating (0 to 100 scale, 0 is no effect, 100 is complete control) (ragweed; Postemergence, 500 g ai/ha) | Plant response rating, Ragweed (ragweed; [8]) | Plant response rating, Galium (galium) | Galium plant response rating (0 to 100 scale, 0 is no effect, 100 is complete control) (galium) | Plant response rating, Sedge, Umbrella (sedge, umbrella) | Plant response rating, Ducksalad (ducksalad) | Plant response rating, Foxtail, Giant (giant foxtail; [6]) | Plant response rating, Foxtail, Giant (giant foxtail; [7]) | Foxtail, Giant plant response rating (0 to 100 scale, 0 is no effect, 100 is complete control) (giant foxtail; Postemergence, 500 g ai/ha) | Plant response rating, Foxtail, Giant (giant foxtail; preemergence, 500 g ai/ha) | Plant response rating, Kochia (kochia; [6]) | also measured |
| --- | --- | --- | --- | --- | --- | --- | --- | --- | --- | --- | --- | --- | --- | --- | --- | --- | --- | --- | --- | --- | --- |
| O=C1NCC(c2cccc(C3CC3)c2)C1C(=O)Nc1ccc(F)c(F)c1F (racemic) [Compound 168] | 0 | 90 | 90 | 90 | 90 | 40 | 60 | 0 | 0 | 20 | 50 | 60 | 70 | 0 | 100 | 90 | 90 | 90 | 90 | 40 | Plant response rating, Kochia (kochia; [7]): 40; Kochia plant response rating (0 to 100 scale, 0 is no effect, 100 is complete control) (kochia; Postemergence, 500 g ai/ha): 60; Plant response rating, Kochia (kochia; [8]): 60; Plant response rating, Wheat (wheat): 0; Wheat plant response rating (0 to 100 scale, 0 is no effect, 100 is complete control) (wheat): 40; Plant response rating, Ryegrass, Italian (ryegrass, Italian; [6]): 0; Plant response rating, Ryegrass, Italian (ryegrass, Italian; [7]): 20; Ryegrass, Italian plant response rating (0 to 100 scale, 0 is no effect, 100 is complete control) (ryegrass, Italian; Postemergence, 500 g ai/ha): 50; Plant response rating, Ryegrass, Italian (ryegrass, Italian; [8]): 40; Plant response rating, Barnyardgrass (barnyardgrass [2]): 65; Plant response rating, Corn (corn): 30; Corn plant response rating (0 to 100 scale, 0 is no effect, 100 is complete control) (corn): 70; Plant response rating, Pigweed (pigweed; [6]): 40; Plant response rating, Pigweed (pigweed; [7]): 0; Pigweed plant response rating (0 to 100 scale, 0 is no effect, 100 is complete control) (pigweed; Postemergence, 500 g ai/ha): 40; Plant response rating, Pigweed (pigweed; [8]): 50 |
| CCc1cccc(C2CNC(=O)C2C(=O)Nc2cccc(F)c2F)c1 (racemic) [Compound 170] | 15 | 90 | 90 | 90 | 90 | 50 | 60 | 0 | 20 | 50 | 60 | 60 | 60 | 0 | 100 | 80 | 60 | 90 | 90 | 50 | Plant response rating, Kochia (kochia; [7]): 20; Kochia plant response rating (0 to 100 scale, 0 is no effect, 100 is complete control) (kochia; Postemergence, 500 g ai/ha): 50; Plant response rating, Kochia (kochia; [8]): 70; Plant response rating, Wheat (wheat): 0; Wheat plant response rating (0 to 100 scale, 0 is no effect, 100 is complete control) (wheat): 60; Plant response rating, Ryegrass, Italian (ryegrass, Italian; [6]): 0; Plant response rating, Ryegrass, Italian (ryegrass, Italian; [7]): 20; Ryegrass, Italian plant response rating (0 to 100 scale, 0 is no effect, 100 is complete control) (ryegrass, Italian; Postemergence, 500 g ai/ha): 60; Plant response rating, Ryegrass, Italian (ryegrass, Italian; [8]): 50; Plant response rating, Barnyardgrass (barnyardgrass [2]): 85; Plant response rating, Corn (corn): 20; Corn plant response rating (0 to 100 scale, 0 is no effect, 100 is complete control) (corn): 70; Plant response rating, Pigweed (pigweed; [6]): 50; Plant response rating, Pigweed (pigweed; [7]): 20; Pigweed plant response rating (0 to 100 scale, 0 is no effect, 100 is complete control) (pigweed; Postemergence, 500 g ai/ha): 30; Plant response rating, Pigweed (pigweed; [8]): 50 |
| CCc1cccc(C2CNC(=O)C2C(=O)Nc2ccc(F)c(F)c2F)c1 (racemic) [Compound 171] | 0 | 90 | 90 | 90 | 90 | 50 | 60 | 0 | 0 | 30 | 30 | 50 | 70 | 0 | 100 | 90 | 60 | 80 | 90 | 60 | Plant response rating, Kochia (kochia; [7]): 0; Kochia plant response rating (0 to 100 scale, 0 is no effect, 100 is complete control) (kochia; Postemergence, 500 g ai/ha): 30; Plant response rating, Kochia (kochia; [8]): 70; Plant response rating, Wheat (wheat): 0; Wheat plant response rating (0 to 100 scale, 0 is no effect, 100 is complete control) (wheat): 50; Plant response rating, Ryegrass, Italian (ryegrass, Italian; [6]): 0; Plant response rating, Ryegrass, Italian (ryegrass, Italian; [7]): 20; Ryegrass, Italian plant response rating (0 to 100 scale, 0 is no effect, 100 is complete control) (ryegrass, Italian; Postemergence, 500 g ai/ha): 30; Plant response rating, Ryegrass, Italian (ryegrass, Italian; [8]): 30; Plant response rating, Barnyardgrass (barnyardgrass [2]): 70; Plant response rating, Corn (corn): 20; Corn plant response rating (0 to 100 scale, 0 is no effect, 100 is complete control) (corn): 70; Plant response rating, Pigweed (pigweed; [6]): 20; Plant response rating, Pigweed (pigweed; [7]): 0; Pigweed plant response rating (0 to 100 scale, 0 is no effect, 100 is complete control) (pigweed; Postemergence, 500 g ai/ha): 40; Plant response rating, Pigweed (pigweed; [8]): 40 |

Reference: patent US10294202B2, “Pyrrolidinones as herbicides” (FMC Corporation, priority 2013, dated 2019)
